Earlier results as cited in US6403554B2, “Polyunsaturated fatty acid derivatives and their use” (Ardenia Investments Ltd., priority 1998, dated 2002).

Assays:
[1] = test system: human AFP (alpha-fetoprotein); conditions: International Application PCT/EP99/04201; cited from earlier work
AFP = biological target: T1, AFP (Homo sapiens, UniProt P02771); conditions: International Application PCT/EP99/04201; cited from earlier work
T1 construct: from tissue; host or cells: human cord blood
T1 sequence (P02771 19-609): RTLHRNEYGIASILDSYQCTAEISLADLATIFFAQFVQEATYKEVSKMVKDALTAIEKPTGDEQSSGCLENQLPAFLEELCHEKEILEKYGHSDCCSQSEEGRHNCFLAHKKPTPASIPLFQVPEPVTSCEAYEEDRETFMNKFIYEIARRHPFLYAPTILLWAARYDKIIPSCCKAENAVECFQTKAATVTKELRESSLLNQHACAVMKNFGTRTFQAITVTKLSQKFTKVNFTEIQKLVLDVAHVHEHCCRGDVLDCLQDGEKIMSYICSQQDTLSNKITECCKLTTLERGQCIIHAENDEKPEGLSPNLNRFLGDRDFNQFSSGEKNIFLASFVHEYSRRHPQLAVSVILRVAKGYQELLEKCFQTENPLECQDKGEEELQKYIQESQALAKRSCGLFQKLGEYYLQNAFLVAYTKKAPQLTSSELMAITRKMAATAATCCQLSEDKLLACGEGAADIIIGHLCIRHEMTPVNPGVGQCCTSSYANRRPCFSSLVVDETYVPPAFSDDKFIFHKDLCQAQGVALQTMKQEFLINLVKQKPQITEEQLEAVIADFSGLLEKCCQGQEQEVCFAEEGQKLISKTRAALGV

rats = conditions: injected into rats; cited from earlier work

CCCCC/C=C\C/C=C\C/C=C\C/C=C\CCCC(=O)NCCOP(=O)(O)O [Compound 5, N-(cis-5,8,11,14-eicosatetraenoyl)-O-phospho-2-aminoethanol]
molecules of N-AAP in micelle linked to AFP [1]: up to 300 molecules

CCCCC/C=C\C/C=C\C/C=C\C/C=C\CCCC(=O)NCCOP(=O)(O)O [Compound 5, N-arachidonoyl-o-phospho-2-aminoethanol]
Molecules of compound in the micelle reversibly linked to AFP (AFP): up to 300 molecules

CCCCCCCC/C=C\CCCCCCCC(N)=O [cis-9,10-octadecenoamide]
physiological sleep (rats): induced physiological sleep
